According to paper PMC4494889 (Cell reports, 2015):
Numbering of substitutions follows the chain as printed. Where two headings read alike, the source gives them in different places.

Columns and labels:
[1] = target: RIPK2 (Homo sapiens, UniProt O43353); test: ADP-Glo in vitro kinase assay, recombinant RIPK2; type: biochemical
[2] = target: Abl (Homo sapiens, UniProt P00519); test: ADP-Glo in vitro kinase assay, recombinant Abl; type: biochemical; settings: read-out: IC50, nM ADPGlo, Abl; recombinant Abl (1 ng)
Chain of Abl (P00519 whole entry, species assumed): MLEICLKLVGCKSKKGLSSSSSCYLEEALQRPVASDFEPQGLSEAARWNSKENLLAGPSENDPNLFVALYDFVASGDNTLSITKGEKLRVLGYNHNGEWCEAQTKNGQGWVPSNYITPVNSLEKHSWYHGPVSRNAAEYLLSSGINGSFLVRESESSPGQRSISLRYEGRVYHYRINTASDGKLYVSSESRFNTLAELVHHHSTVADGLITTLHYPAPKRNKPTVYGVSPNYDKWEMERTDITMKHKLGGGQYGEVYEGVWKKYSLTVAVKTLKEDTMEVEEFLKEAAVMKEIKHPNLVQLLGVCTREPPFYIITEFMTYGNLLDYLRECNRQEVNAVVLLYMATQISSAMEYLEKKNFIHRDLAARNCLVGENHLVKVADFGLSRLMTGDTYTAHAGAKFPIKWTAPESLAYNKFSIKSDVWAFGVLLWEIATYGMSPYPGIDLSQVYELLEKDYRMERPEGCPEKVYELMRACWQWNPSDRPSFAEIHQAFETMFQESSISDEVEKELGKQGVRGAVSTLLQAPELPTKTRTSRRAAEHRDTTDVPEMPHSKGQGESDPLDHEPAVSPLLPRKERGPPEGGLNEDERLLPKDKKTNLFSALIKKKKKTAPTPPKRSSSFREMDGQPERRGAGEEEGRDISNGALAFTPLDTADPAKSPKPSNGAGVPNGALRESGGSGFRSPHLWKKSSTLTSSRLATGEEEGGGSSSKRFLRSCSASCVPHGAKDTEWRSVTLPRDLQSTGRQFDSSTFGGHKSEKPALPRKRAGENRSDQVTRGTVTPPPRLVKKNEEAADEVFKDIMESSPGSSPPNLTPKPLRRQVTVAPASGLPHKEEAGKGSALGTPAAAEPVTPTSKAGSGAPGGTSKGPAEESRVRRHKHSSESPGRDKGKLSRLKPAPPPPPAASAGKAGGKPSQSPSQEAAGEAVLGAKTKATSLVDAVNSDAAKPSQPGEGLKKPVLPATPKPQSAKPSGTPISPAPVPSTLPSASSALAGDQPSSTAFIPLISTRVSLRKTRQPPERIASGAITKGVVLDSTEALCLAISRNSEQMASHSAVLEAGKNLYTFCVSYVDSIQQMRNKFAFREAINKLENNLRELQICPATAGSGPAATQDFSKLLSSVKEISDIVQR

[3] = target: T1, RIPK1 (Homo sapiens, UniProt Q13546); test: ScanEDGE; type: binding; settings: 1 μM
T1 sequence (Q13546 1-671): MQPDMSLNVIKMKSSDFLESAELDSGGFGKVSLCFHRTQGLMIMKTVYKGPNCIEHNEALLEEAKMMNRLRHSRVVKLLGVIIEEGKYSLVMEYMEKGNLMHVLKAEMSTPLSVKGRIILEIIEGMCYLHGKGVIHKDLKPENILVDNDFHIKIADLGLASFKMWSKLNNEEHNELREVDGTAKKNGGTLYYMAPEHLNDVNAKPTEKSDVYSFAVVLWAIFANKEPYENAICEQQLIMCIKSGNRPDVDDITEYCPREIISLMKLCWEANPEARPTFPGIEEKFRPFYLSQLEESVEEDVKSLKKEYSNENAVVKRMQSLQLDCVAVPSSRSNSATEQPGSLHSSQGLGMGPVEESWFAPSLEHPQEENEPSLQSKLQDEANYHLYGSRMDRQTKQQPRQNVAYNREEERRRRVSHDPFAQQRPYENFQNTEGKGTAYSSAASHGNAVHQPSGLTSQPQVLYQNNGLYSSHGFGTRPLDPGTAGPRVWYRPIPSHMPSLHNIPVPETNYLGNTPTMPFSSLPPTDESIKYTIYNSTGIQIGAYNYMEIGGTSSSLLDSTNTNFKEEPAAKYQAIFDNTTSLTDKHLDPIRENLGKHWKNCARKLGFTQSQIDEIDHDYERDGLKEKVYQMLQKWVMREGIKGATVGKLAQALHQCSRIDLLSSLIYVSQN

[4] = target: DYRK1b (Homo sapiens, UniProt Q9Y463); test: ScanEDGE; type: binding; settings: 1 μM
Chain of DYRK1b (Q9Y463 whole entry): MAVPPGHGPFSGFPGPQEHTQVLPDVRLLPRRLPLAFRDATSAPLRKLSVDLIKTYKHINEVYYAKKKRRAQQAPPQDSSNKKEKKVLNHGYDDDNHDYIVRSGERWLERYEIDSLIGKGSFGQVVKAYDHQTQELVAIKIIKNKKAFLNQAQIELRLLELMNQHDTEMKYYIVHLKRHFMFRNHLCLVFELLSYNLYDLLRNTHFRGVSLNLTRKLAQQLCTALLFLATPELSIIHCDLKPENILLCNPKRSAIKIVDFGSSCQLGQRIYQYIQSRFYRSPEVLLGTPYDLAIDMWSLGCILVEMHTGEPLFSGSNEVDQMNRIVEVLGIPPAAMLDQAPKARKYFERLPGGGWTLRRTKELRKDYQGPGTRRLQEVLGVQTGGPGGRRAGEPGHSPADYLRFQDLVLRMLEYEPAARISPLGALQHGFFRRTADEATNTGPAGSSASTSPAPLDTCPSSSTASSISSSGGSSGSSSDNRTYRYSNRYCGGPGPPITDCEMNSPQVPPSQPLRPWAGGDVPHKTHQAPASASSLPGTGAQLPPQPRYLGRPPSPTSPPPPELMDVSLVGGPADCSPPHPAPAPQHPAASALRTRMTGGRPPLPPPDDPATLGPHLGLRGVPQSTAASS

[5] = system: diversity set of 97 kinases (90 wild type kinase and 7 mutants); type: binding, human; settings: 1 μM
[6] = system: MEFs; test: TCZ; type: cell-based; settings: 50 ng/ml mouse TNFα, 200 ng/ml cycloheximide, 25 μM zVAD.fmk, 18 hr
[7] = target: T2, RIPK1/RIPK3 “necrosome” complex (Mus musculus, UniProt Q60855); test: Necrosome complex formation, co-IP assay in TCZ-stimulated MEFs; type: cell-based; settings: TCZ 6 hr, RIPK3 immunoprecipitation
T2 sequence (Q60855 1-656): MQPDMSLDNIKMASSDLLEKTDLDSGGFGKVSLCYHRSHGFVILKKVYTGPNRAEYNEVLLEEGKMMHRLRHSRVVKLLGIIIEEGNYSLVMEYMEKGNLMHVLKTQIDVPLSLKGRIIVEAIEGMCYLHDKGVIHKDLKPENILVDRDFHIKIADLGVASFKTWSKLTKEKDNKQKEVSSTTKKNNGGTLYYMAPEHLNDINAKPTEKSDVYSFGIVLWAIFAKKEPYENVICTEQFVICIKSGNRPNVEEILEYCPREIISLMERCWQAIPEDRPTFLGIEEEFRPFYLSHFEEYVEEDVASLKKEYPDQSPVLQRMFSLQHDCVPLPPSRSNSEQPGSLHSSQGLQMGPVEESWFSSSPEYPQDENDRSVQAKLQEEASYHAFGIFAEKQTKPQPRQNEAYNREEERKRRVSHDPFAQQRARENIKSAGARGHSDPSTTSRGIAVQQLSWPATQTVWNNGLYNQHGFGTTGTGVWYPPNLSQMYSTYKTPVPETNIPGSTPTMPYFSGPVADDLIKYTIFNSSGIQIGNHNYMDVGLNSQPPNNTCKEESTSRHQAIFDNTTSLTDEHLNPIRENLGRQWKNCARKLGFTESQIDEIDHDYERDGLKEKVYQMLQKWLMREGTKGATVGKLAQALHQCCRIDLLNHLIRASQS

[8] = system: TNFα mRNA in FADD-deficient Jurkat cells; test: RIPK1-dependent TNFα mRNA upregulation, qRT-PCR, Jurkat; type: cell-based; settings: 10 ng/ml human TNFα, 8 hr
[9] = system: TNFα mRNA in iBMM cells; test: RIPK1-dependent TNFα mRNA upregulation, qRT-PCR, iBMM; type: cell-based, mouse; settings: 10 ng/ml LPS and 50 μM zVAD.fmk, 7 hr
[10] = system: TNFα toxicity in C57BL6/J mice; test: TNF-induced injury in vivo; settings: for activity with respect to survival and injury markers: 0.4 mg/kg i.p., versus Nec-1; for protection from TNFα toxicity in vivo: 15 min before 5 μg/mouse mouse TNFα i.v.
[11] = target: T3, RIPK3 (Homo sapiens, UniProt Q9Y572); test: ADP-Glo in vitro kinase assay, recombinant RIPK3; type: biochemical
T3 sequence (Q9Y572 whole entry, species assumed): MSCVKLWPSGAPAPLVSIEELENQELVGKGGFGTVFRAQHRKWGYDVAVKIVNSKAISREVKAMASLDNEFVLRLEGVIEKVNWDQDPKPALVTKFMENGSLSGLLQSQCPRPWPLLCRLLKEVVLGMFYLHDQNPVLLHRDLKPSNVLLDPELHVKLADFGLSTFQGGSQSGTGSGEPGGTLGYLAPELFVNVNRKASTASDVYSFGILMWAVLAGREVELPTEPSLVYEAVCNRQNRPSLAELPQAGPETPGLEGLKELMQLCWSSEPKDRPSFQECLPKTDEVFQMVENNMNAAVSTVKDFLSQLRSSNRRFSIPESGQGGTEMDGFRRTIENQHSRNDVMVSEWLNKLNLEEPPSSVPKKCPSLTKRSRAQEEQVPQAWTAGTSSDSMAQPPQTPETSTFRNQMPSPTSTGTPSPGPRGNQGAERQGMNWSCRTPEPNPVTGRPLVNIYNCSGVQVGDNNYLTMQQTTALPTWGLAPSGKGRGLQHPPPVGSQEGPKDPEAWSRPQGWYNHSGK

[12] = target: T4, RIPK1 (Homo sapiens, UniProt Q13546); test: ADP-Glo in vitro kinase assay, recombinant RIPK1
T4 sequence (Q13546 1-327): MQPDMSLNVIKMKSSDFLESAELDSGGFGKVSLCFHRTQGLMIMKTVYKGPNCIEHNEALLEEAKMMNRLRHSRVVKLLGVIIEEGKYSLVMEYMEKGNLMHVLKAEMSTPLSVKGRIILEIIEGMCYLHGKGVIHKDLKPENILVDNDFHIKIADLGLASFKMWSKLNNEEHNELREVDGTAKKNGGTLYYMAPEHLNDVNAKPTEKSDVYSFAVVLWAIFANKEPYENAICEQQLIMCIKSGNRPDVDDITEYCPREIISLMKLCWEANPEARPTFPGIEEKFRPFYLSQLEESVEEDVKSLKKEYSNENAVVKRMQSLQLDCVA

[13] = system: FADD-deficient Jurkat cells; test: Jurkat cell necroptosis assay; settings: for IC50: read-out: IC50, nM Jurkat cell necroptosis assay (RIPK1/3-dependent)
[14] = target: T4, RIPK1; test: 32P autophosphorylation assay, recombinant RIPK1; type: biochemical; settings: 2 μM kinase
[15] = target: T3, RIPK3; test: 32P autophosphorylation assay, recombinant RIPK3; type: biochemical; settings: 2 μM kinase
[16] = system: RIPK1−/− MEFs; test: IFNγ-induced RIPK3-dependent cell death; settings: 10 ng/ml IFNγ, 24 hr
[17] = target: T4, RIPK1; test: HTRF assay of RIPK1; type: biochemical
[18] = target: T5, L157F/M92T RIPK1 (Homo sapiens, UniProt Q13546, L157F/M92T); test: 32P autophosphorylation assay, L157F/M92T RIPK1; type: biochemical; settings: FLAG-tagged kinase (a.a. 1–327) from HEK293T cells
T5 sequence (Q13546 1-327 M92T/L157F): T4 sequence (Q13546 1-327) with M92T, L157F

[19] = system: MEFs; test: RIPK1-dependent apoptosis of MEFs; settings: 10 ng/ml mouse TNFα + 100 nM 5z-7-oxozeaenol, 24 hr
[20] = system: MEFs; test: poly; type: cell-based, mouse; settings: 5 μg/ml poly(I:C), 50 μM zVAD.fmk, 24 hr
[21] = read-out: IC50, nM ADPGlo, RIPK2, recombinant RIPK2 (10 ng)
[22] = read-out: IC50, nM ADPGlo, RIPK3, recombinant RIPK3 (20 ng)
[23] = read-out: IC50, nM ADPGlo, RIPK1, recombinant RIPK1 (20 ng)

Chain of RIPK2 (O43353 whole entry, species assumed): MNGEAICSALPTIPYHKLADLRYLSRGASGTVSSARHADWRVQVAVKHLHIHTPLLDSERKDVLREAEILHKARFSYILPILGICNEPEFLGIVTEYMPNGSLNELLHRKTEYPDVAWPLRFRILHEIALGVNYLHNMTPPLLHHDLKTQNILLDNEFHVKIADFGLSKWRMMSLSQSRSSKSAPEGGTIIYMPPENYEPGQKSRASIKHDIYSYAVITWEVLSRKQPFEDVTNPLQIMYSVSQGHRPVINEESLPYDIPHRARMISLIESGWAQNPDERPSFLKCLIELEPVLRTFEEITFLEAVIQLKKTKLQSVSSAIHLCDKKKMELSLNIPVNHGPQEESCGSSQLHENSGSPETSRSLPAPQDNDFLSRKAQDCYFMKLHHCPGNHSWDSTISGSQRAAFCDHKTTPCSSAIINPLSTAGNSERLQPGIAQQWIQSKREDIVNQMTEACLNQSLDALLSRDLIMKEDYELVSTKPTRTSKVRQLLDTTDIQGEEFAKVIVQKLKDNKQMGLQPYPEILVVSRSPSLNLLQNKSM

SMILES	IC50 [1, 21]	IC50 [2]	inhibition of necrosome complex formation [7]	inhibition of TNFα mRNA upregulation, Jurkat cells [8]	inhibition of TNFα mRNA upregulation, immortalized macrophages [9]	protection from TNFα toxicity in vivo ([10]; 1 mg/kg i.p.)	inhibition of RIPK1 in 32P autophosphorylation assay [14]	inhibition of RIPK3 in 32P autophosphorylation assay [15]	inhibition of IFNγ-induced cell death [16]	IC50 [11, 22]	IC50 ([13]; 10 ng/ml human TNFα, 24 hr)	further results
Cc1ccc(CCCCN2C(=O)NC(Cc3c[nH]c4c(Cl)cccc34)C2=O)cc1C#Cc1cnc2cccnn12 (centres unmarked) [PN10]	1400 nM	> 10000 nM	efficiently inhibited	efficiently inhibited	efficiently inhibited	fully protective	–	–	–	–	–	inhibition of RIPK1 in ScanEDGE panel [3]: > 99%; inhibition of DYRK1b in ScanEDGE panel [4]: 79%; inhibition of other kinases of the ScanEDGE panel [5]: No other kinase was inhibited >65%; Maximal protection from TCZ-induced cell death [6]: ~ 85%; activity with respect to survival and injury markers [10]: significantly higher activity than Nec-1
CNC(=O)c1cc(Oc2ccc(NC(=O)Nc3cc(C(C)(C)C)nn3-c3ccc4ncccc4c3)c(F)c2)ccn1 [DCC-2036]	–	–	–	–	–	–	–	–	–	–	–	IC50 [1]: 520 nM; IC50 [11]: 18 nM; IC50 [12]: 5.7 nM; cellular activity, fold lower than ponatinib ([13]; versus ponatinib): > 10 fold
Cc1ccc(NC(=O)c2ccc(CN3CCN(C)CC3)cc2)cc1Nc1nccc(-c2cccnc2)n1 [Gleevec, Imatinib]	–	–	–	–	–	–	neither inhibited	neither inhibited	Neither Gleevec nor Nilotininb	–	–	prevention of necroptosis ([13]; 10 ng/ml human TNFα, 24 hr): nor prevented necroptosis
Cc1ccc(C(=O)Nc2ccc(CN3CCN(C)CC3)c(C(F)(F)F)c2)cc1C#Cc1cnc2cccnn12 [Ponatinib, ponatinib]	–	–	substantial, but lower activity	efficiently inhibited	efficiently inhibited	completely prevented toxicity of TNFα	inhibition	inhibition	–	–	–	inhibition of RIPK1 in HTRF assay [17]: inhibition; inhibition of L157F/M92T RIPK1 in 32P autophosphorylation assay [18]: inhibited; activity with respect to survival and injury markers [10]: significantly higher activity than Nec-1; protection from RIPK1-dependent, RIPK3-independent apoptosis [19]: protected
COc1ccc2c(c1)C1=NN(C(C)=O)C(c3ccc(F)cc3)C1CC2 (centres unmarked) [Nec-3]	> 10000 nM	> 10000 nM	–	–	–	–	–	–	–	> 10000 nM	260 nM	IC50 [12, 23]: 840 nM
CN1C(=O)NC(Cc2c[nH]c3c(Cl)cccc23)C1=O (centres unmarked) [Nec-1, 7-Cl-O-Nec-1]	> 10000 nM	> 10000 nM	efficiently blocked necrosome assembly	inhibited	inhibited	significant protection from injury	only inhibited RIPK1	only inhibited RIPK1	–	> 10000 nM	210 nM	inhibition of poly(I:C)/zVAD.fmk-induced cell death [20]: marginal protection; circulating levels of IL-6 ([10]; 1 mg/kg i.p.): reduced; survival of the animals ([10]; 1 mg/kg i.p.): prevented death of the animals
CC(C)S(=O)(=O)c1ccc2nccc(Nc3ccc4scnc4c3)c2c1 [GSK-872]	–	–	not affected	–	–	–	–	–	blockade of cell death	–	–	inhibition of poly(I:C)/zVAD.fmk-induced cell death [20]: inhibit; protection from TCZ-induced cell death [6]: efficiently protecting cells; protection from RIPK1-dependent, RIPK3-independent apoptosis [19]: did not inhibit RIPK1-dependent apoptosis
Cc1cc(-c2cnc(N)c3c(-c4ccc5scnc5c4)csc23)n(C)n1 [GSK-843]	–	–	not affected	–	–	–	–	–	–	–	–	protection from TCZ-induced cell death [6]: efficiently protecting cells
Cc1cn(-c2cc(NC(=O)c3ccc(C)c(Nc4nccc(-c5cccnc5)n4)c3)cc(C(F)(F)F)c2)cn1 [Nilotininb]	–	–	–	–	–	–	–	–	Neither Gleevec nor Nilotininb	–	–	–
CN1CCN(Cc2ccc(NC(=O)c3cccc(C#Cc4cnc5cccnn45)c3)cc2C(F)(F)F)CC1 [CS1]	63 nM	–	–	–	–	–	–	–	–	7.4 nM	219 nM	IC50 [12, 23]: 42 nM
